Where two headings read alike, the source gives them in different places.

The target in one experiment is HIV-1 protease (Human immunodeficiency virus type 1 group M subtype B (isolate HXB2) (HIV-1), UniProt P04585). Put plainly: biochemical. Conditions: enzymatic inhibitory activity.
The subject of a further experiment is HIV-1LAI. As to the kind of experiment: Antiviral MTT assay, MT-2 cells exposed to HIV-1LAI. Conditions: Human immunodeficiency virus 1, MT2. The format is cell-based. The procedure: As shown in Scheme 4, alcohols 14, 15, 20, and 21 were activated with p-nitrophenyl chloroformate to provide mixed activated carbonates 21a-d. These carbonates were reacted with amine 22 to afford HIV-1 protease inhibitors 23a-d. These inhibitors were evaluated for their activity in both enzyme inhibitory and antiviral assays. The enzyme inhibitory activity (Ki) was determined according to an assay protocol reported by Toth and Marshall (Toth, M. V.; Marshall, G. R. Int. J. Pep. Protein Res. 1990, 36, 544-550). […] Antiviral IC50 values were determined using the MTT assay (Koh, Y., et al., Antimicrob. Agents Chemother. 2003, 47, 3123-3129.).

As for `COc1ccc(S(=O)(=O)N(CC(C)C)C[C@@H](O)[C@H](Cc2ccccc2)NC(=O)O[C@H]2CO[C@H]3OC[C@@H](OCc4ccccc4)[C@H]32)cc1` [Compound 23b, (3R,3aS,4S,6aR)-4-(benzyloxy)hexahydrofuro[2,3-b]furan-3-yl-(2S,3R)-3-hydroxy-4-(N-isobutyl-4-methoxyphenylsulfonamido)-1-phenylbutan-2-ylcarbamate], the inhibitory constant (Ki) at HIV-1 protease came to 73 pM. In the experiment with HIV-1LAI, half-maximal inhibition (IC50) was put at 335000 pM.

Molecule `COc1ccc(S(=O)(=O)N(CC(C)C)C[C@@H](O)[C@H](Cc2ccccc2)NC(=O)O[C@H]2CO[C@H]3OC[C@@H](OC)[C@H]32)cc1` [Compound 23a, (3R,3aS,4S,6aR)-4-methoxyhexahydrofuro[2,3-b]furan-3-yl-(2S,3R)-3-hydroxy-4-(N-isobutyl-4-methoxyphenylsulfonamido)-1-phenylbutan-2-ylcarbamate] came in with a Ki on HIV-1 protease of 35 pM. In the experiment on HIV-1LAI, the IC50 was found to be 56000 pM.

The molecule `COc1ccc(S(=O)(=O)N(CC(C)C)C[C@@H](O)[C@H](Cc2ccccc2)NC(=O)O[C@H]2CO[C@H]3OC[C@H](OC)[C@H]32)cc1` [Compound 23c, (3R,3aS,4R,6aR)-4-methoxyhexahydrofuro[2,3-b]furan-3-yl-(2S,3R)-3-hydroxy-4-(N-isobutyl-4-methoxyphenylsulfonamido)-1-phenylbutan-2-ylcarbamate] showed a Ki at HIV-1 protease of 2.9 pM. In addition, in the experiment with HIV-1LAI, the midpoint of inhibition, the IC50, lay at 2400 pM.

For `COc1ccc(S(=O)(=O)N(CC(C)C)C[C@@H](O)[C@H](Cc2ccccc2)NC(=O)O[C@H]2CO[C@H]3OCC[C@H]32)cc1` [Entry 1, reference compound], the half-maximal inhibitory concentration (IC50) in the experiment on HIV-1LAI (Human T-lymphoid (MT-2) cells exposed to 100 TCID50 of HIV-1LAI, MTT assay, means of at least three experiments, read-out: IC50) came to 1400 pM.

On HIV-1 protease, `COc1ccc(S(=O)(=O)N(CC(C)C)C[C@@H](O)[C@H](Cc2ccccc2)NC(=O)O[C@H]2CO[C@H]3OC[C@H](OCc4ccccc4)[C@H]32)cc1` [Compound 23d, (3R,3aS,4R,6aR)-4-(benzyloxy)hexahydrofuro[2,3-b]furan-3-yl-(2S,3R)-3-hydroxy-4-(N-isobutyl-4-methoxyphenylsulfonamido)-1-phenylbutan-2-ylcarbamate] showed an inhibitory constant (Ki) of 300 pM.

(Values after US8802724B2, “Processes and intermediates for preparing substituted hexahydrofuro [2,3-b] furans” (Purdue Research Foundation, priority 2010, dated 2014).)
